In brackets after ≈: the same amount, converted by molar mass. Bounds are passed on as bounds.

What all share (assay): in vitro antibacterial activity, MIC by dilution test in microtiter
Assay [1] relates to Enterococcus faecalis ATCC 7,080. It is filed as cell-based. The following applies: strain L 149; Mueller-Hinton broth, inoculum about 5×10^5 cfu/ml, 0.01% bovine serum albumin, 37° C., 18-24 hours. As for the experimental part: (§1) The in vitro antibacterial activity of the compounds is determined by means of standard […] tests in microtiter. Iso-Sensitest broth (Oxoid) is used for all bacteria except streptococci (Todd-Wewitt broth, Difco) and enterococci (Mueller-Hinton, Difco). Broth cultures are diluted so that the final inoculum is about 5×10^5 cfu/ml (colony forming units per ml). All broth microdilution MICs are performed in the presence of 0.01% bovine serum albumin (Pentax fraction V, Sigma).

For the next assay, the system named is S. aureus Smith. It is filed as cell-based. Particulars: strain L 819; Iso-Sensitest broth, inoculum about 5×10^5 cfu/ml, 0.01% bovine serum albumin, 37° C., 18-24 hours. As for the experimental part: as §1
For a further assay, the system named is S. aureus clin. isol. It is filed as cell-based. The following applies: strain L 561; Iso-Sensitest broth, inoculum about 5×10^5 cfu/ml, 0.01% bovine serum albumin, 37° C., 18-24 hours. The procedure:
as §1

The subject of assay [2] is S. epidermidis ATCC 12,228. It is filed as cell-based. Particulars: strain L 147; Iso-Sensitest broth, inoculum about 5×10^5 cfu/ml, 0.01% bovine serum albumin, 37° C., 18-24 hours. As for the experimental part: as §1
The test system of assay [3] is S. epidermidis clin. isol. The assay is classed as cell-based. The following applies: strain L 533; Iso-Sensitest broth, inoculum about 5×10^5 cfu/ml, 0.01% bovine serum albumin, 37° C., 18-24 hours. As for the experimental part: as §1
Assay [4] deals with S. haemolyticus clin, isol. The assay is classed as cell-based. Particulars: strain L 602; Iso-Sensitest broth, inoculum about 5×10^5 cfu/ml, 0.01% bovine serum albumin, 37° C., 18-24 hours. The procedure:
as §1

The test system of another assay is Staph. aureus Tour. The assay is classed as cell-based. The following applies: strain L 165; Iso-Sensitest broth, inoculum about 5×10^5 cfu/ml, 0.01% bovine serum albumin, 37° C., 18-24 hours. As for the experimental part:
as §1

The next assay concerns Strep. pneumoniae UC41. It is filed as cell-based. Particulars: strain L 44; Todd-Wewitt broth, inoculum about 5×10^5 cfu/ml, 0.01% bovine serum albumin, 37° C., 18-24 hours. As for the experimental part: as §1
The next assay deals with Strep. pyogenes C203. The assay is classed as cell-based. The following applies: strain L 49; Todd-Wewitt broth, inoculum about 5×10^5 cfu/ml, 0.01% bovine serum albumin, 37° C., 18-24 hours. The procedure:
as §1

The subject of another assay is E. faecalis clin. isol. It is filed as cell-based, Enterococcus faecalis. The following applies: for MIC: strain L 502, Mueller-Hinton broth, inoculum about 5×10^5 cfu/ml, 0.01% bovine serum albumin, 37° C., 18-24 hours. The procedure:
as §1

In the case of “(L-phenylalanyl)^3 -(D-lysyl)^15 -aglucoteicoplanin dalbaheptide methyl ester”, the MIC was 0.5 µg/mL in [1]; 0.13 µg/mL in the assay on S. aureus Smith; 0.06 µg/mL against S. aureus clin. isol.; 0.13 µg/mL in [2]; 0.13 µg/mL in [3]; 0.5 µg/mL in assay [4]. For the same compound, the MIC in the assay on Staph. aureus Tour is 0.13 µg/mL; in the assay on Strep. pneumoniae UC41, 0.13 µg/mL; against Strep. pyogenes C203, 0.25 µg/mL; against E. faecalis clin. isol., 16 µg/mL. In the assay with E. faecalis clin. isol., the “activity against a clinical isolate of Enterococcus faecalis (in words)” value (“activity against a clinical isolate” for short) was “surprisingly active”.
In the case of teicoplanin, the MIC in assay [1] amounted to 0.13 µg/mL; with S. aureus Smith, 0.25 µg/mL; in the assay with S. aureus clin. isol. it was 8 µg/mL; in [2] it was 8 µg/mL; in assay [3], 8 µg/mL; in assay [4], 32 µg/mL. Further, the minimum inhibitory concentration (MIC) in the assay on Staph. aureus Tour was 0.13 µg/mL; in the assay on Strep. pneumoniae UC41, 0.13 µg/mL; in the assay with Strep. pyogenes C203 it was 0.13 µg/mL; in the assay with E. faecalis clin. isol., more than 128 µg/mL. Besides, the “activity against a clinical isolate” value in the assay with E. faecalis clin. isol. is “resistant”.
Turning to `N[C@H]1C(=O)N[C@@H]2Cc3ccc(c(Cl)c3)Oc3cc4cc(c3O)Oc3ccc(cc3Cl)[C@@H](O)[C@@H]3NC(=O)[C@H](NC(=O)[C@@H]4NC(=O)[C@@H](NC2=O)c2cc(O)cc(c2)Oc2cc1ccc2O)c1ccc(O)c(c1)-c1c(O)cc(O)cc1[C@@H](C(=O)O)NC3=O` [teicoplanin aglycon], the MIC in assay [1] was 0.13 µg/mL (≈ 0.108 µM); against S. aureus Smith it was 0.06 µg/mL (≈ 0.05 µM); against S. aureus clin. isol. it was 0.13 µg/mL (≈ 0.108 µM); in assay [2] it was 0.06 µg/mL (≈ 0.05 µM); in [3], 0.016 µg/mL (≈ 0.0133 µM); in [4] it was 0.25 µg/mL (≈ 0.209 µM). For the same compound, the minimal inhibitory concentration (MIC) with Staph. aureus Tour is 0.13 µg/mL (≈ 0.108 µM); against Strep. pneumoniae UC41, 0.13 µg/mL (≈ 0.108 µM); in the assay on Strep. pyogenes C203, 0.13 µg/mL (≈ 0.108 µM); with E. faecalis clin. isol. it was more than 128 µg/mL. The “activity against a clinical isolate” value with E. faecalis clin. isol. is recorded as “resistant”.

The values above are taken from patent US5644025A, “Tetrapeptides deriving from dalbaheptide antibiotics” (Gruppo Lepetit SPA, priority 1990, dated 1997).
